# Biological target: T1, human GLP-1R receptor (Homo sapiens, UniProt P43220)
# T1 construct: expressed in transfected cells
# Assay: GLP-1R low expression cell assay (cAMP TR-FRET, CHO-K1_hGLP-1Rlow_clone10 cells)
# Assay type: cell-based
# Conditions: for EC50: cAMP TR-FRET, 30 min at 25° C.; for Emax: maximum activation relative to control GLP-1 peptide agonist
# In short: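 Readout is cAMP TR-FRET after 30 min compound stimulation at 25 °C of a low-GLP-1R-expressing CHO-K1 clone (1,000 cells/well), with 10-point 3-fold serial dilutions. Percent activation versus a control GLP-1 peptide, from duplicates, was Hill-fitted to give EC50.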
# T1 sequence (P43220 24-463): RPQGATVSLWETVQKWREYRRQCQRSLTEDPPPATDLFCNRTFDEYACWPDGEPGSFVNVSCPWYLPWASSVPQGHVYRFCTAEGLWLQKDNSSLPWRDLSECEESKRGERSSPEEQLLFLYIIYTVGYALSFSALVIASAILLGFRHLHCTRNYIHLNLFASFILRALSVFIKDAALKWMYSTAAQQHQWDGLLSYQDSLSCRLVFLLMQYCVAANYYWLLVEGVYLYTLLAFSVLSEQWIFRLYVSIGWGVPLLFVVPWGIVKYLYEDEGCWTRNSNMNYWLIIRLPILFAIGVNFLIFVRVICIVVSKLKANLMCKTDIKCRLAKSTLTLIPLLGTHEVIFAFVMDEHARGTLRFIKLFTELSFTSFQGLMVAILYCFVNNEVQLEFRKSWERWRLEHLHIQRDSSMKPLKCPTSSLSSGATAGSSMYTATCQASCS
SMILES,EC50 [nM],Emax [%]
"Cn1c(CN2CCC(c3cccc(OCc4ccc(C#N)cc4F)n3)CC2)nc2c(C(C)(C)O)cc(C(=O)O)cc21 [Compound 126, 2-((4-(6-((4-cyano-2-fluorobenzyl)oxy)pyridin-2-yl)piperidin-1-yl)methyl)-4-(2-hydroxypropan-2-yl)-1-methyl-1H-benzo[d]imidazole-6-carboxylic acid]",> 1000,50 to 85
"CC(=O)Oc1cc(C(=O)O)cc2c1nc(CN1CCC(c3cccc(OCc4ccc(C#N)cc4F)n3)CC1)n2C [Compound 128, 4-Acetoxy-2-((4-(6-((4-cyano-2-fluorobenzyl)oxy)pyridin-2-yl)piperidin-1-yl)methyl)-1-methyl-1H-benzo[d]imidazole-6-carboxylic acid]",10 to 100,> 85
"N#Cc1ccc(COc2cccc(C3CCN(Cc4nc5c(N)nc(C(=O)O)cc5n4C[C@@H]4CCO4)CC3)n2)c(F)c1 [Compound 134, (S)-4-amino-2-((4-(6-((4-cyano-2-fluorobenzyl)oxy)pyridin-2-yl)piperidin-1-yl)methyl)-1-(oxetan-2-ylmethyl)-1H-imidazo[4,5-c]pyridine-6-carboxylic acid]",10 to 100,> 85
"Cn1c(CN2CCC(c3cccc(OCc4ccc(C#N)cc4F)n3)CC2)nc2c(OC(C)(C)C)cc(C(=O)O)cc21 [Compound 135, 4-(tert-Butoxy)-2-((4-(6-((4-cyano-2-fluorobenzyl)oxy)pyridin-2-yl)piperidin-1-yl)methyl)-1-methyl-1H-benzo[d]imidazole-6-carboxylic acid]",100 to 1000,> 85
"Cn1c(CN2CCC(c3cccc(Cl)c3OCc3ccc(C#N)cc3F)CC2)nc2c(OC(F)F)cc(C(=O)O)cc21 [Compound 138, 2-((4-(3-Chloro-2-((4-cyano-2-fluorobenzyl)oxy)phenyl)piperidin-1-yl)methyl)-4-(difluoromethoxy)-1-methyl-1H-benzo[d]imidazole-6-carboxylic acid]",> 1000,25 to 50
"Cc1ccc(COc2c(F)cccc2C2CCN(Cc3nc4c(OC(F)F)cc(C(=O)O)cc4n3C)CC2)c(F)c1 [Compound 139, 4-(Difluoromethoxy)-2-((4-(3-fluoro-2-((2-fluoro-4-methylbenzyl)oxy)phenyl)piperidin-1-yl)methyl)-1-methyl-1H-benzo[d]imidazole-6-carboxylic acid]",10 to 100,> 85
"Cn1c(CN2CCC(c3cccc(F)c3OCc3ccc(Cl)cc3F)CC2)nc2c(OC(F)F)cc(C(=O)O)cc21 [Compound 140, 2-((4-(2-((4-Chloro-2-fluorobenzyl)oxy)-3-fluorophenyl)piperidin-1-yl)methyl)-4-(difluoromethoxy)-1-methyl-1H-benzo[d]imidazole-6-carboxylic acid]",10 to 100,> 85
"COc1c(OCc2ccc(C#N)cc2F)cccc1C1CCN(Cc2nc3c(OC(F)F)cc(C(=O)O)cc3n2C)CC1 [Compound 144, 2-((4-(3-((4-Cyano-2-fluorobenzyl)oxy)-2-methoxyphenyl)piperidin-1-yl)methyl)-4-(difluoromethoxy)-1-methyl-1H-benzo[d]imidazole-6-carboxylic acid]",> 1000,< 25
"Cn1c(CN2CCC(c3c(F)cccc3OCc3ccc(C#N)cc3F)CC2)nc2c(OC(F)F)cc(C(=O)O)cc21 [Compound 146, 2-((4-(2-((4-Cyano-2-fluorobenzyl)oxy)-6-fluorophenyl)piperidin-1-yl)methyl)-4-(difluoromethoxy)-1-methyl-1H-benzo[d]imidazole-6-carboxylic acid]",> 1000,50 to 85
"Cn1c(CN2CCC(c3cccc(OCc4ccc(Cl)cc4F)c3)CC2)nc2c(OC(F)F)cc(C(=O)O)cc21 [Compound 148, 2-((4-(3-((4-Chloro-2-fluorobenzyl)oxy)phenyl)piperidin-1-yl)methyl)-4-(difluoromethoxy)-1-methyl-1H-benzo[d]imidazole-6-carboxylic acid]",100 to 1000,> 85
"Cn1c(CN2CCC(Oc3cccc(COc4ccc(C#N)cc4F)n3)CC2)nc2c(OC(F)F)cc(C(=O)O)cc21 [Compound 149, 2-((4-((6-((4-Cyano-2-fluorophenoxy)methyl)pyridin-2-yl)oxy)piperidin-1-yl)methyl)-4-(difluoromethoxy)-1-methyl-1H-benzo[d]imidazole-6-carboxylic acid]",10 to 100,> 85
"Cn1c(CN2CCN(c3cccc(OCc4ccc(Cl)cc4F)n3)CC2)nc2c(OC(F)F)cc(C(=O)O)cc21 [Compound 150, 2-((4-(6-((4-Chloro-2-fluorobenzyl)oxy)pyridin-2-yl)piperazin-1-yl)methyl)-4-(difluoromethoxy)-1-methyl-1H-benzo[d]imidazole-6-carboxylic acid]",10 to 100,> 85
"Cn1c(CN2CCC(c3cccc(N4CCc5cc(C#N)cc(F)c5C4)n3)CC2)nc2c(OC(F)F)cc(C(=O)O)cc21 [Compound 151, 2-((4-(6-(6-Cyano-8-fluoro-3,4-dihydroisoquinolin-2(1H)-yl)pyridin-2-yl)piperidin-1-yl)methyl)-4-(difluoromethoxy)-1-methyl-1H-benzo[d]imidazole-6-carboxylic acid]",100 to 1000,> 85
"Cn1c(CN2CC=C(c3ccc(F)c(OCc4ccc(Cl)cc4F)c3)CC2)nc2c(OC(F)F)cc(C(=O)O)cc21 [Compound 152, 2-((4-(3-((4-Chloro-2-fluorobenzyl)oxy)-4-fluorophenyl)-3,6-dihydropyridin-1(2H)-yl)methyl)-4-(difluoromethoxy)-1-methyl-1H-benzo[d]imidazole-6-carboxylic acid]",10 to 100,> 85

# The next lines start with the values.
EC50 [nM],Emax [%],SMILES
10 to 100,> 85,"Cn1c(CN2CCC(c3cccc(OCc4ccc(C#N)cc4F)n3)CC2)nc2c(OC(F)(F)F)cc(C(=O)O)cc21 [Compound 125, 2-((4-(6-((4-Cyano-2-fluorobenzyl)oxy)pyridin-2-yl)piperidin-1-yl)methyl)-1-methyl-4-(trifluoromethoxy)-1H-benzo[d]imidazole-6-carboxylic acid]"
10 to 100,> 85,"CS(=O)(=O)Nc1cc(C(=O)O)cc2c1nc(CN1CCC(c3cccc(OCc4ccc(C#N)cc4F)n3)CC1)n2C[C@@H]1CCO1 [Compound 129, (S)-2-((4-(6-((4-cyano-2-fluorobenzyl)oxy)pyridin-2-yl)piperidin-1-yl)methyl)-4-(methylsulfonamido)-1-(oxetan-2-ylmethyl)-1H-benzo[d]imidazole-6-carboxylic acid]"
> 1000,25 to 50,"Cn1c(CN2CCC(c3cccc(COc4ccc(C#N)cc4F)n3)CC2)nc2c(OC(F)F)cc(C(=O)O)cc21 [Compound 130, 2-((4-(6-((4-Cyano-2-fluorophenoxy)methyl)pyridin-2-yl)piperidin-1-yl)methyl)-4-(difluoromethoxy)-1-methyl-1H-benzo[d]imidazole-6-carboxylic acid]"
100 to 1000,> 85,"CN(c1nc2c(OC(F)F)cc(C(=O)O)cc2n1C[C@@H]1CCO1)[C@H]1CC[C@@H](c2cccc(OCc3ccc(C#N)cc3F)n2)CC1 [Compound 131, 2-(((1s,4R)-4-(6-((4-cyano-2-fluorobenzyl)oxy)pyridin-2-yl)cyclohexyl) (methyl)amino)-4-(difluoromethoxy)-1-(((S)-oxetan-2-yl)methyl)-1H-benzo[d]imidazole-6-carboxylic acid]"
< 10,> 85,"CN(c1nc2c(OC(F)F)cc(C(=O)O)cc2n1C[C@@H]1CCO1)[C@H]1CC[C@H](c2cccc(OCc3ccc(C#N)cc3F)n2)CC1 [Compound 132, 2-(((1r,4S)-4-(6-((4-cyano-2-fluorobenzyl)oxy)pyridin-2-yl)cyclohexyl) (methyl)amino)-4-(difluoromethoxy)-1-(((S)-oxetan-2-yl)methyl)-1H-benzo[d]imidazole-6-carboxylic acid]"
10 to 100,> 85,"Cn1c(CN2CCC(c3cccc(OCc4ccc(C5COC5)cc4F)n3)CC2)nc2c(OC(F)F)cc(C(=O)O)cc21 [Compound 141, 4-(Difluoromethoxy)-2-((4-(6-((2-fluoro-4-(oxetan-3-yl)benzyl)oxy)pyridin-2-yl)piperidin-1-yl)methyl)-1-methyl-1H-benzo[d]imidazole-6-carboxylic acid]"
> 1000,> 85,"Cn1c(N(C)[C@H]2CC[C@@H](c3cccc(OCc4ccc(C#N)cc4F)n3)CC2)nc2c(OC(F)F)cc(C(=O)O)cc21 [Compound 142, 2-(((1s,4s)-4-(6-((4-Cyano-2-fluorobenzyl)oxy)pyridin-2-yl)cyclohexyl)(methyl)amino)-4-(difluoromethoxy)-1-methyl-1H-benzo[d]imidazole-6-carboxylic acid]"
< 10,> 85,"N#Cc1ccc(COc2cccc(C3CCN(Cc4nc5c(O)nc(C(=O)O)cc5n4C[C@@H]4CCO4)CC3)n2)c(F)c1 [Compound 143, (S)-2-((4-(6-((4-Cyano-2-fluorobenzyl)oxy)pyridin-2-yl)piperidin-1-yl)methyl)-4-hydroxy-1-(oxetan-2-ylmethyl)-1H-imidazo[4,5-c]pyridine-6-carboxylic acid]"
100 to 1000,> 85,"Cn1c(CN2CCC(c3ccnc(OCc4ccc(C#N)cc4F)n3)CC2)nc2c(OC(F)F)cc(C(=O)O)cc21 [Compound 145, 2-((4-(2-((4-Cyano-2-fluorobenzyl)oxy)pyrimidin-4-yl)piperidin-1-yl)methyl)-4-(difluoromethoxy)-1-methyl-1H-benzo[d]imidazole-6-carboxylic acid]"
100 to 1000,> 85,"COc1cc(C(=O)O)cc2c1nc(CN1CCC(c3cccc(OCc4ccc(C#N)cc4F)n3)CC1)n2C(F)F [Compound 147, 2-((4-(6-((4-Cyano-2-fluorobenzyl)oxy)pyridin-2-yl)piperidin-1-yl)methyl)-1-(difluoromethyl)-4-methoxy-1H-benzo[d]imidazole-6-carboxylic acid]"

# Source: patent publication US20240368120A1 (Terns Pharmaceuticals, Inc., priority 2023, published 2024)
